Reference: patent US5462935A, “Cephalosporin compounds” (Lucky Limited, priority 1990, dated 1995)
≈ marks a conversion by molar mass, not a printed value.

How the values were obtained:
[1] = acute toxicity test, intravenous; conditions: mouse, in vivo, ICR mice, observed for 14 days
Excerpt: The results are shown in the last row of Table 2.

[2] = test system: Enterobacter aerogenes ATCC 29751; assay: minimal inhibitory concentration, two-fold agar dilution; type: cell-based; conditions: Klebsiella aerogenes, ATCC29751, 20 h
Description: (§1) These NIC values were taken by employing a two-fold dilution method: that is, two-fold serial dilutions of each of the test compounds were made and dispersed in a Muller-Hinton agar medium; 2 μl of the standard test strain which had the 10^7 CFU (Colony Forming Unit) per ml was inoculated on the medium; and these were incubated at 37° C. for 20 hours.

[3] = test system: Bacillus cereus ATCC 11778; assay: as above; type: cell-based; conditions: Bacillus cereus, ATCC11778, 20 h
Description: as §1

[4] = test system: Shigella sonnei ATCC 11060; assay: as above; type: cell-based; conditions: ATCC11060, Muller-Hinton agar, 37° C., 20 hours
Description: as §1

[5] = test system: Enterobacter cloacae ATCC 27508; assay: as above; type: cell-based; conditions: ATCC27508, Muller-Hinton agar, 37° C., 20 hours
Description: as §1

[6] = test system: Citrobacter freundii ATCC 8090; assay: as above; type: cell-based; conditions: ATCC8090, Muller-Hinton agar, 37° C., 20 hours
Description: as §1

[7] = test system: Proteus mirabilis ATCC 25933; assay: as above; type: cell-based; conditions: ATCC25933, Muller-Hinton agar, 37° C., 20 hours
Description: as §1

[8] = test system: Escherichia coli ATCC 10536; assay: as above; type: cell-based; conditions: ATCC10536, Muller-Hinton agar, 37° C., 20 hours
Description: as §1

[9] = test system: Proteus vulgaris ATCC 6059; assay: as above; type: cell-based; conditions: ATCC6059, Muller-Hinton agar, 37° C., 20 hours
Description: as §1

[10] = test system: Providencia rettgeri ATCC 9250; assay: as above; type: cell-based; conditions: ATCC9250, Muller-Hinton agar, 37° C., 20 hours
Description: as §1

[11] = test system: Acinetobacter calcoaceticus ATCC 15473; assay: as above; type: cell-based; conditions: ATCC15473, Muller-Hinton agar, 37° C., 20 hours
Description: as §1

[12] = test system: Pseudomonas aerugionsa ATCC 27853; assay: as above; type: cell-based; conditions: ATCC27853, Muller-Hinton agar, 37° C., 20 hours
Description: as §1

ATCC 12228 = assay: as above; type: cell-based; conditions: Staphylococcus faecalis, ATCC12228, 20 h
Description: as §1

[13] = test system: Bacillus megaterium ATCC 9885; assay: as above; type: cell-based; conditions: Priestia megaterium, ATCC9885, 20 h
Description: as §1

[14] = test system: Serratia marcescens ATCC 27117; assay: as above; type: cell-based; conditions: ATCC27117, Muller-Hinton agar, 37° C., 20 hours
Description: as §1

[15] = test system: Salmonella typhimurium ATCC 14028; assay: as above; type: cell-based; conditions: Salmonella enterica, Muller-Hinton agar, 37° C., 20 hours
Description: as §1

[16] = test system: Escherichia coli ATCC 25922; assay: as above; type: cell-based; conditions: ATCC25922, Muller-Hinton agar, 37° C., 20 hours
Description: as §1

[17] = test system: Micrococcus luteus ATCC 9341; assay: as above; type: cell-based; conditions: ATCC9341, Muller-Hinton agar, 37° C., 20 hours
Description: as §1

[18] = test system: Pseudomonas aerugionsa ATCC 10145; assay: as above; type: cell-based; conditions: ATCC10145, Muller-Hinton agar, 37° C., 20 hours
Description: as §1

[19] = test system: Klebsiella pneumoniae ATCC 10031; assay: as above; type: cell-based; conditions: ATCC10031, Muller-Hinton agar, 37° C., 20 hours
Description: as §1

[20] = test system: Shigella flexneri ATCC 11836; assay: as above; type: cell-based; conditions: ATCC11836, Muller-Hinton agar, 37° C., 20 hours
Description: as §1

[21] = test system: Staphylococcus epidermidis ATCC 10537; assay: as above; type: cell-based; conditions: ATCC10537, Muller-Hinton agar, 37° C., 20 hours
Description: as §1

[22] = test system: Staphylococcus aureus ATCC 6638p; assay: as above; type: cell-based; conditions: ATCC6638P, 20 h
Description: as §1

[23] = test system: Pseudomonas aeruginosa ATCC 25619; assay: as above; type: cell-based; conditions: ATCC25619, Muller-Hinton agar, 37° C., 20 hours
Description: as §1

[24] = test system: Streptococcus faecalis ATCC 29212; assay: as above; type: cell-based; conditions: Enterococcus faecalis, ATCC29212, Muller-Hinton agar, 37° C., 20 hours
Description: as §1

[25] = test system: Morganella morganii ATCC 8076h; assay: as above; type: cell-based; conditions: ATCC8076H, 20 h
Description: as §1

| Compound | LD50 at 336 h [1] [mg/kg] | MIC [2] [µg/mL] | MIC [3] [µg/mL] | MIC [4] [µg/mL] | MIC [5] [µg/mL] | MIC [6] [µg/mL] | MIC [7] [µg/mL] | MIC [8] [µg/mL] | MIC [9] [µg/mL] | MIC [10] [µg/mL] | MIC [11] [µg/mL] | MIC [12] [µg/mL] | MIC (ATCC 12228) [µg/mL] | MIC [13] [µg/mL] | MIC [14] [µg/mL] | MIC [15] [µg/mL] | MIC [16] [µg/mL] | MIC [17] [µg/mL] | MIC [18] [µg/mL] | MIC [19] [µg/mL] | other results |
| --- | --- | --- | --- | --- | --- | --- | --- | --- | --- | --- | --- | --- | --- | --- | --- | --- | --- | --- | --- | --- | --- |
| CCC[n+]1c(N)cc(N)nc1SCC1=C(C(=O)[O-])N2C(=O)C(NC(=O)/C(=N\O[C@@H](C)C(=O)O)c3csc(N)n3)[C@H]2SC1 (stereo partly drawn) [I-S-4, 7-[(Z)-2-(2-aminothiazol-4-yl)-2-[(S)-1-carboxyeth-1-oxyimino]acetamido]-3-[(4,6-diamino-1-propylpyrimidinium-2-yl)thiomethyl]-3-cephem-4-carboxylate] | > 3000 | 1 (≈ 1.57 µM) | 32 (≈ 50.2 µM) | 0.063 (≈ 0.0988 µM) | ≤ 0.008 | 0.031 (≈ 0.0486 µM) | 0.031 (≈ 0.0486 µM) | 0.031 (≈ 0.0486 µM) | 0.031 (≈ 0.0486 µM) | ≤ 0.008 | 4 (≈ 6.27 µM) | 1 (≈ 1.57 µM) | 1 (≈ 1.57 µM) | 0.5 (≈ 0.784 µM) | 0.13 (≈ 0.204 µM) | 0.13 (≈ 0.204 µM) | 0.031 (≈ 0.0486 µM) | 0.13 (≈ 0.204 µM) | 2 (≈ 3.14 µM) | 0.031 (≈ 0.0486 µM) | MIC [20]: 0.031 µg/mL (≈ 0.0486 µM); MIC [21]: 1 µg/mL (≈ 1.57 µM); MIC [22]: 2 µg/mL (≈ 3.14 µM); MIC [23]: 1 µg/mL (≈ 1.57 µM); MIC [24]: > 128 µg/mL; MIC [25]: ≤ 0.008 µg/mL |
| CC[n+]1c(N)cc(N)nc1SCC1=C(C(=O)[O-])N2C(=O)C(NC(=O)/C(=N\O[C@H](C)C(=O)O)c3csc(N)n3)[C@H]2SC1 (stereo partly drawn) [I-R-3, 7-[(Z)-2-(2-aminothiazol-4-yl)-2-[(R)-1-carboxyeth-1-oxyimino]acetamido]-3-[(4,6-diamino-1-ethylpyrimidinium-2-yl)thiomethyl]-3-cephem-4-carboxylate] | > 3000 | 0.5 (≈ 0.802 µM) | 128 (≈ 205 µM) | 0.031 (≈ 0.0497 µM) | 0.016 (≈ 0.0257 µM) | 0.063 (≈ 0.101 µM) | 0.031 (≈ 0.0497 µM) | 0.063 (≈ 0.101 µM) | 0.031 (≈ 0.0497 µM) | ≤ 0.008 | 4 (≈ 6.41 µM) | 1 (≈ 1.6 µM) | 1 (≈ 1.6 µM) | 1 (≈ 1.6 µM) | 0.063 (≈ 0.101 µM) | 0.13 (≈ 0.208 µM) | 0.063 (≈ 0.101 µM) | 0.25 (≈ 0.401 µM) | 2 (≈ 3.21 µM) | 0.031 (≈ 0.0497 µM) | MIC [20]: 0.031 µg/mL (≈ 0.0497 µM); MIC [21]: 2 µg/mL (≈ 3.21 µM); MIC [22]: 2 µg/mL (≈ 3.21 µM); MIC [23]: 1 µg/mL (≈ 1.6 µM); MIC [24]: > 128 µg/mL; MIC [25]: ≤ 0.008 µg/mL |
| C[C@@H](O/N=C(\C(=O)NC1C(=O)N2C(C(=O)[O-])=C(CSc3nc(N)cc(N)[n+]3C)CS[C@H]12)c1csc(N)n1)C(=O)O (stereo partly drawn) [I-R-2, 7-[(Z)-2-(2-aminothiazol-4-yl)-2-[(R)-1-carboxyeth-1-oxyimino]acetamido]-3-[(4,6-diamino-1-methylpyrimidinium-2-yl)thiomethyl]-3-cephem-4-carboxylate] | > 3000 | 1 (≈ 1.64 µM) | > 128 | 0.031 (≈ 0.0508 µM) | 0.016 (≈ 0.0262 µM) | 0.063 (≈ 0.103 µM) | 0.031 (≈ 0.0508 µM) | 0.063 (≈ 0.103 µM) | 0.031 (≈ 0.0508 µM) | ≤ 0.008 | 4 (≈ 6.56 µM) | 1 (≈ 1.64 µM) | 2 (≈ 3.28 µM) | 1 (≈ 1.64 µM) | 0.063 (≈ 0.103 µM) | 0.13 (≈ 0.213 µM) | 0.031 (≈ 0.0508 µM) | 0.5 (≈ 0.82 µM) | 2 (≈ 3.28 µM) | 0.031 (≈ 0.0508 µM) | MIC [20]: 0.031 µg/mL (≈ 0.0508 µM); MIC [21]: 2 µg/mL (≈ 3.28 µM); MIC [22]: 4 µg/mL (≈ 6.56 µM); MIC [23]: 2 µg/mL (≈ 3.28 µM); MIC [24]: > 128 µg/mL; MIC [25]: ≤ 0.008 µg/mL |
